Experimental data taken from PMC12951562, “SH2scan: Mapping SH2 Domain-Ligand Binding Selectivity for Inhibitors and Degraders” (Journal of Medicinal Chemistry, 2026).
Read-outs that look alike come from different tables or passages of the source.

Experiments:
Assay in all cases: biochemical
Type in all cases: binding
[1] = target: T1, CBLB (Homo sapiens, UniProt Q13191); settings: primary screen, 10 μM
T1 construct: the DNA-tagged SH2 domain concentrations used in this study were <0.1 nM; made in house; host or cells: HEK293 (transient transfection; unpurified extract)

[2] = target: T2, CSK (Homo sapiens, UniProt P41240); settings: for percent of DMSO vehicle control: primary screen, 10 μM
T2 construct: the DNA-tagged SH2 domain concentrations used in this study were <0.1 nM; made in house; host or cells: HEK293 (transient transfection; unpurified extract)
T2 sequence (P41240 82-171 limits assumed): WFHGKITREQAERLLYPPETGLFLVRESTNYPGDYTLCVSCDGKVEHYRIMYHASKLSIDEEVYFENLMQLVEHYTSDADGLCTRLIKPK

[3] = target: T3, GRB10 (Homo sapiens, UniProt Q13322); settings: for percent of DMSO vehicle control at 10 µM / remaining activity at 10 µM: read-out: percent of DMSO vehicle control; for remaining activity at 10 µM: primary screen
T3 construct: the DNA-tagged SH2 domain concentrations used in this study were <0.1 nM; made in house; host or cells: HEK293 (transient transfection; unpurified extract)
T3 sequence (Q13322 493-574 limits assumed): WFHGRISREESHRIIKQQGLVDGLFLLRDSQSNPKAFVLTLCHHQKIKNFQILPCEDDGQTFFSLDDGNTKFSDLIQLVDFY

[4] = target: T4, LYN (Homo sapiens, UniProt P07948); settings: read-out: percent of DMSO vehicle control
T4 construct: the DNA-tagged SH2 domain concentrations used in this study were <0.1 nM; made in house; host or cells: HEK293 (transient transfection, unpurified extract)

[5] = target: T5, PLCG1(SH2dom.N-term.) (Homo sapiens, UniProt P19174); settings: for remaining activity at 10 µM: read-out: percent of DMSO vehicle control; for Kd: dose-response, read-out: KD
T5 construct: SH2dom.N-term. denotes SH2 domain closest to N-terminus of protein; made in house; host or cells: HEK293 (transient transfection, unpurified extract)
T5 sequence (P19174 550-657 limits assumed): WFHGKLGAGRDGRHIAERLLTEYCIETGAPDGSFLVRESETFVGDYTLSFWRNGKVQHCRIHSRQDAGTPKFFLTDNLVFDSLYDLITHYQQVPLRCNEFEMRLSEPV

[6] = target: T6, SH3BP2 (Homo sapiens, UniProt P78314); settings: read-out: percent of DMSO vehicle control
T6 construct: made in house; host or cells: HEK293 (transient transfection), unpurified extract
T6 sequence (P78314 1-561): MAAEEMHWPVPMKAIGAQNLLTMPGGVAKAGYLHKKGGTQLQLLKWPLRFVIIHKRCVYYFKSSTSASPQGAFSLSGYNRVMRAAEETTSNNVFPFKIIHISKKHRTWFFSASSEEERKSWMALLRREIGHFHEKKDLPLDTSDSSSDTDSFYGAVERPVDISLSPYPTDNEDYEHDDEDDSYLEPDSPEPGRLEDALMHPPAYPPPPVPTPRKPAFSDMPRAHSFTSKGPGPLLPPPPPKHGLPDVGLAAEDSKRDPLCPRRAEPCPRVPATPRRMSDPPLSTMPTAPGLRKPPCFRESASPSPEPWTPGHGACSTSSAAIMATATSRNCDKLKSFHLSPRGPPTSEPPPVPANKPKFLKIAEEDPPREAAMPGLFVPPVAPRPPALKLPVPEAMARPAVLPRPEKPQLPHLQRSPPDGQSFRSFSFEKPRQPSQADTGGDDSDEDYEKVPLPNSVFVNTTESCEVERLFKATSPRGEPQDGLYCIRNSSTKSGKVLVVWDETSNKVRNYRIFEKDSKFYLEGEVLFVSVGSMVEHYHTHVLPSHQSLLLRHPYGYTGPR

[7] = target: T7, SLP76 (Homo sapiens, UniProt Q13094); settings: read-out: percent of DMSO vehicle control
T7 construct: made in house; host or cells: HEK293 (transient transfection), unpurified extract
T7 sequence (Q13094 1-533): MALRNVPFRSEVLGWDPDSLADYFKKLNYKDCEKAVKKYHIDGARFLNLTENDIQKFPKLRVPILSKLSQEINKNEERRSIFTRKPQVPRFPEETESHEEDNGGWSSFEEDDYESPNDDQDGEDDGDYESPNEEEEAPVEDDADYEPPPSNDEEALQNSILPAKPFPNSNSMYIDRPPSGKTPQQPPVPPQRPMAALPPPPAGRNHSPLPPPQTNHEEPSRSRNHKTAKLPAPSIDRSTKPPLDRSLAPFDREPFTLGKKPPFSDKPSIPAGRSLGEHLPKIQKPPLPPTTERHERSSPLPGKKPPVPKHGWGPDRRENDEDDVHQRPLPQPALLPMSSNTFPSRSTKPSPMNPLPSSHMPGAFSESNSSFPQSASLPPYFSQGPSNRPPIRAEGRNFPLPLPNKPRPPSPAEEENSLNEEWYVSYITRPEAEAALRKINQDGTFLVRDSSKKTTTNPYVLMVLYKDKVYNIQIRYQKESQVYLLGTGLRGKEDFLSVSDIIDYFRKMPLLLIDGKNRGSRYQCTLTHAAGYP

[8] = target: T8, SOCS6 (Homo sapiens, UniProt O14544); settings: read-out: percent of DMSO vehicle control
T8 construct: made in house; host or cells: HEK293 (transient transfection), unpurified extract
T8 sequence (O14544 1-535): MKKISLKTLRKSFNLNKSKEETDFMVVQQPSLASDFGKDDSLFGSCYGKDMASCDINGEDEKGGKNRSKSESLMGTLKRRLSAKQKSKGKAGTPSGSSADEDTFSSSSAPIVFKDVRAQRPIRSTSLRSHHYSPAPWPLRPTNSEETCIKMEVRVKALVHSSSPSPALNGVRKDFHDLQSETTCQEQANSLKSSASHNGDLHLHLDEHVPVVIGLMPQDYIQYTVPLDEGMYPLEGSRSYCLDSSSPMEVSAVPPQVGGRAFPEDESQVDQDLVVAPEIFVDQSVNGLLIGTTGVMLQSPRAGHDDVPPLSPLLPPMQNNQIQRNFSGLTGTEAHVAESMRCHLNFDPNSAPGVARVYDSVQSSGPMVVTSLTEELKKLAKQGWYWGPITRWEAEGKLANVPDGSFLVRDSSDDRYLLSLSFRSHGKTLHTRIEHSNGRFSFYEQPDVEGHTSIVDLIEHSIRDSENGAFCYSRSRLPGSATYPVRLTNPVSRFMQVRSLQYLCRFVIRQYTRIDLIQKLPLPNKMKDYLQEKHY

[9] = target: T9, STAP2 (Homo sapiens, UniProt Q9UGK3); settings: for percent of DMSO vehicle control at 10 µM / remaining activity at 10 µM: read-out: percent of DMSO vehicle control; for remaining activity at 10 µM: primary screen
T9 construct: made in house; host or cells: HEK293 (transient transfection), unpurified extract
T9 sequence (Q9UGK3 1-403): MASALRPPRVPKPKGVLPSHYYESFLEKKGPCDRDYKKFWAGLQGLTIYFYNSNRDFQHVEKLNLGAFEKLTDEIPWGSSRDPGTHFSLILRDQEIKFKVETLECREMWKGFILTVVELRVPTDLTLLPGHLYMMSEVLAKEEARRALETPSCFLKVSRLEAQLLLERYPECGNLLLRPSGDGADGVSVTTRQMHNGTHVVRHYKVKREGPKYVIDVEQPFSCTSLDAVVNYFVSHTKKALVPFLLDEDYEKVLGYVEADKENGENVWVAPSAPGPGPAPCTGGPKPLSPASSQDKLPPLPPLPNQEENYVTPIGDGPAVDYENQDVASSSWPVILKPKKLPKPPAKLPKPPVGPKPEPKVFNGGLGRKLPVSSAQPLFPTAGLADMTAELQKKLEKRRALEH

T4 sequence (P07948 129-226 limits assumed): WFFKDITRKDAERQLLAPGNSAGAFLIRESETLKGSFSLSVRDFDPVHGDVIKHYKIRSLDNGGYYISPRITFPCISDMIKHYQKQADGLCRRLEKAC
T1 sequence (Q13191 241-343 limits assumed): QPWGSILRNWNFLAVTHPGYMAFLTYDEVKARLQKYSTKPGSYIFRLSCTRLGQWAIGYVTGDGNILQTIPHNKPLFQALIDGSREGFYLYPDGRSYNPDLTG

| Structure (SMILES) | percent of DMSO vehicle control [1] [%] | percent of DMSO vehicle control [2] [%] | percent of DMSO vehicle control at 10 µM [3] [%] | remaining activity at 10 µM [4] [%] | remaining activity at 10 µM [5] [%] | remaining activity at 10 µM [6] [%] | remaining activity at 10 µM [7] [%] | remaining activity at 10 µM [8] [%] | percent of DMSO vehicle control at 10 µM [9] [%] | Kd ([2]; dose-response, read-out: KD) [µM] | KD ([3]; dose-response) | remaining activity at 10 µM [3] [%] | remaining activity at 10 µM ([4]; primary screen, 10 μM) [%] | Kd [5] [µM] | remaining activity at 10 µM ([5]; primary screen, 10 μM) [%] | remaining activity at 10 µM ([6]; primary screen, 10 μM) [%] | remaining activity at 10 µM ([7]; primary screen, 10 μM) [%] | remaining activity at 10 µM ([8]; primary screen, 10 μM) [%] | Kd ([9]; dose-response, read-out: KD) [µM] | remaining activity at 10 µM [9] [%] |
| --- | --- | --- | --- | --- | --- | --- | --- | --- | --- | --- | --- | --- | --- | --- | --- | --- | --- | --- | --- | --- |
| NC(=O)CC[C@H](NC(=O)[C@@H]1CC[C@@H]2CCN(C(=O)CCCCCC#Cc3cccc4c3CN(C3CCC(=O)NC3=O)C4=O)C[C@H](NC(=O)c3cc4cc(C(F)(F)P(=O)(O)O)ccc4[nH]3)C(=O)N21)C(=O)NC(c1ccccc1)c1ccccc1 (some centres unmarked) [SD-36] | 60.9±5.8 | 97.3±14.8 | 111 ± 9.2 | 90.9 ± 2.3 | 91.3 ± 4.5 | 91.5 ± 19.4 | 66.5 ± 0.8 | 57.2 ± 3.4 | 36.1 ± 5.4 |  |  |  |  |  |  |  |  |  |  |  |
| CC(=O)N1CC[C@H]2CC[C@@H](C(=O)N[C@@H](CCC(N)=O)C(=O)NC(c3ccccc3)c3ccccc3)N2C(=O)[C@@H](NC(=O)c2cc3cc(C(F)(F)P(=O)(O)O)ccc3[nH]2)C1 [SI-109] | 128.3 | 121.2 | 122 | 140 | 130 | 131 | 61.9 | 91.9 ± 7.4 | 130 |  |  |  |  |  |  |  |  |  |  |  |
| C/C(=C\C(=O)N[C@H](C(=O)N1CCC[C@H]1C(=O)N(c1ccccc1)c1ccc(I)cc1)C(C)(C)C)c1ccc(OP(=O)(O)O)cc1 [STAT6-IN-1] | 36.0±0.8 | 26.3±0.8 |  |  |  |  |  |  |  | 3.05 ± 0.49 | No Hit | 14.6 ± 11 | 73.6 ± 54 | 0.89 ± 0.72 | 0.3 ± 0.1 | 56.5 ± 0.3 | 50.8 ± 0.4 | 44.1 ± 2.1 | 16.3 | 58.4 ± 51.4 |
| CC(C)(C)[C@H](NC(=O)/C=C/c1ccc(OP(=O)(O)O)cc1)C(=O)N1CCC[C@H]1C(=O)N(c1ccccc1)c1ccc(I)cc1 [STAT6-IN-3] | 69.0±7.6 | 65.2±5.7 |  |  |  |  |  |  |  |  |  | 58.8 ± 17.6 | 82.3 ± 17.1 | 3.7 ± 0.33 | 32.7 ± 14.4 | 92.8 ± 2.7 | 93.6 ± 30.3 | 90.2 ± 12.1 |  | 56.9 ± 15.1 |
| O=C(COc1ccc2cc(C(=O)Nc3ccccc3)ccc2c1)NCc1ccc(OP(=O)(O)O)c(OP(=O)(O)O)c1 [Stafib-1] | 78.9±15.9 | 111.7±5.5 |  |  |  |  |  |  |  |  |  | 78.1 ± 12.9 | 95.6 ± 22.4 |  | 82.6 ± 20.2 | 86 ± 3.2 | 97.5 ± 31 | 96.9 ± 12 |  | 78.7 ± 36.1 |
